Read-outs that look alike come from different tables or passages of the source.
Tests used:
Format in all cases: cell-based
Ralstonia pickettii (AU) = test system: Ralstonia pickettii (AU)
Procedure: The stock organisms were thawed and subbed prior to beginning the MBC test. Molds were subbed to SDA plates one week before, and the bacteria were subbed to TAT agar plates 24 hours prior to the start of the test. All plates were incubated at 32 degrees C.
Each bacterial organism was inoculated into 40 ml sterile saline in a centrifuge tube to create a density of MacFarland #1. Two serial dilutions of 1:100 were then made, resulting in 10^−2 and 10^−4 concentrations. Each dilution was vortexed before it was sampled, and sterile Eppendorf pipette tips were used to make each transfer. The 10^−4 dilution was spiral plated to yield the initial inoculum concentration.
MBC trays were set up with the prepared test reagent. Using a Matrix pipettor, 100 μl aliquots of reagent were distributed into the wells, diluting the amount of preservative from 100% to 10% increments, using unpreserved reagent as the diluent. In one row, 100% non-preserved reagent acted as a positive control and served as a benchmark for a full mat of growth. In well #12H, 100 μl unpreserved reagent was pipetted, and this well was not inoculated with organisms, as it served as the negative control. Once all of the trays were prepared, the prepared bacteria/mold suspensions were poured into the MBC inoculating trays. These were placed onto the reagent trays, and 0.01 ml inoculum was introduced into the 100 μl of reagent in each well.
This was done by dipping a sterile cotton swab into each well, and absorbing all of the liquid in the well. The swab was rolled onto a TAT agar plate ensuring that the entire swab touches the agar. Plates ware incubated at 32 degrees C. for 48 hours to 7 days, depending on the organism. Observations for growth were performed by a scoring matrix using + for a full mat, +/− for some growth, a numerical value for an actual colony count, and—for no growth.
Below are tables that contain the data obtained in Example 1. The MBC test is scored by (+) indicating a full grown mat of organisms, equivalent to the organisms in the unpreserved reagent. (+/−) indicates there is some kill evident disturbing that mat or bringing the quantities down to an almost countable level. An actual number is the actual number of colonies growing at that concentration of preservative. (−) indicates no growth found. The MBC trays were stored at room temperature for the entire test.
The materials and methods and analysis of the MBC test were the same as in Example 1.

[1] = test system: Pseudomonas fluorescens (D); assay: MBC (minimum bactericidal concentration) test in Wash NEXT reagent
[2] = test system: Pseudomonas aeruginosa (L); assay: as above
[3] = at 72 hours, listed as Na Azide

## [N-]=[N+]=[N-] [Sodium Azide, sodium azide]
Ralstonia pickettii (AU); 10% preservative, 8 hour
  MBC test growth score: +
Ralstonia pickettii (AU); 10% preservative, 24 hour
  MBC test growth score: +
Ralstonia pickettii (AU); 10% preservative, 48 hour
  MBC test growth score: +
Ralstonia pickettii (AU); 10% preservative, 72 hour
  MBC test growth score: +
Ralstonia pickettii (AU); 20% preservative, 8 hour
  MBC test growth score: +
Ralstonia pickettii (AU); 20% preservative, 24 hour
  MBC test growth score: +
Ralstonia pickettii (AU); 20% preservative, 48 hour
  MBC test growth score: +
Ralstonia pickettii (AU); 20% preservative, 72 hour
  MBC test growth score: +/−
Ralstonia pickettii (AU); 30% preservative, 8 hour
  MBC test growth score: +
Ralstonia pickettii (AU); 30% preservative, 24 hour
  MBC test growth score: +
Ralstonia pickettii (AU); 30% preservative, 48 hour
  MBC test growth score: +/−
Ralstonia pickettii (AU); 30% preservative, 72 hour
  MBC test growth score: +/−
Ralstonia pickettii (AU); 40% preservative, 8 hour
  MBC test growth score: +
Ralstonia pickettii (AU); 40% preservative, 24 hour
  MBC test growth score: +
Ralstonia pickettii (AU); 40% preservative, 48 hour
  MBC test growth score: +/−
Ralstonia pickettii (AU); 40% preservative, 72 hour
  MBC test growth score: +/−
Ralstonia pickettii (AU); 50% preservative, 8 hour
  MBC test growth score: +
Ralstonia pickettii (AU); 50% preservative, 24 hour
  MBC test growth score: +
Ralstonia pickettii (AU); 50% preservative, 48 hour
  MBC test growth score: +/−
Ralstonia pickettii (AU); 50% preservative, 72 hour
  MBC test growth score: +/−
Ralstonia pickettii (AU); 60% preservative, 8 hour
  MBC test growth score: +
Ralstonia pickettii (AU); 60% preservative, 24 hour
  MBC test growth score: +
Ralstonia pickettii (AU); 60% preservative, 48 hour
  MBC test growth score: +/−
Ralstonia pickettii (AU); 60% preservative, 72 hour
  MBC test growth score: 10
Ralstonia pickettii (AU); 70% preservative, 8 hour
  MBC test growth score: +
Ralstonia pickettii (AU); 70% preservative, 24 hour
  MBC test growth score: +
Ralstonia pickettii (AU); 70% preservative, 48 hour
  MBC test growth score: +/−
Ralstonia pickettii (AU); 70% preservative, 72 hour
  MBC test growth score: 8
Ralstonia pickettii (AU); 80% preservative, 8 hour
  MBC test growth score: +
Ralstonia pickettii (AU); 80% preservative, 24 hour
  MBC test growth score: +/−
Ralstonia pickettii (AU); 80% preservative, 48 hour
  MBC test growth score: +/−
Ralstonia pickettii (AU); 80% preservative, 72 hour
  MBC test growth score: 7
Ralstonia pickettii (AU); 90% preservative, 8 hour
  MBC test growth score: +
Ralstonia pickettii (AU); 90% preservative, 24 hour
  MBC test growth score: +/−
Ralstonia pickettii (AU); 90% preservative, 48 hour
  MBC test growth score: +/−
Ralstonia pickettii (AU); 90% preservative, 72 hour
  MBC test growth score: 4
Ralstonia pickettii (AU); 100% preservative, 8 hour
  MBC test growth score: +
Ralstonia pickettii (AU); 100% preservative, 24 hour
  MBC test growth score: +/−
Ralstonia pickettii (AU); 100% preservative, 48 hour
  MBC test growth score: +/−
Ralstonia pickettii (AU); 100% preservative, 72 hour
  MBC test growth score: 2
Ralstonia pickettii (AU); [3]
  total kill at % preservative (MBC): No kill @ 100%
[1]; 10% preservative, 8 hour
  MBC test growth score: +
[1]; 10% preservative, 24 hour
  MBC test growth score: +
[1]; 10% preservative, 48 hour
  MBC test growth score: +
[1]; 10% preservative, 72 hour
  MBC test growth score: +
[1]; 20% preservative, 8 hour
  MBC test growth score: +
[1]; 20% preservative, 24 hour
  MBC test growth score: +
[1]; 20% preservative, 48 hour
  MBC test growth score: +
[1]; 20% preservative, 72 hour
  MBC test growth score: +
[1]; 30% preservative, 8 hour
  MBC test growth score: +
[1]; 30% preservative, 24 hour
  MBC test growth score: +
[1]; 30% preservative, 48 hour
  MBC test growth score: +
[1]; 30% preservative, 72 hour
  MBC test growth score: +
[1]; 40% preservative, 8 hour
  MBC test growth score: +
[1]; 40% preservative, 24 hour
  MBC test growth score: +
[1]; 40% preservative, 48 hour
  MBC test growth score: +
[1]; 40% preservative, 72 hour
  MBC test growth score: +
[1]; 50% preservative, 8 hour
  MBC test growth score: +
[1]; 50% preservative, 24 hour
  MBC test growth score: +
[1]; 50% preservative, 48 hour
  MBC test growth score: +
[1]; 50% preservative, 72 hour
  MBC test growth score: +
[1]; 60% preservative, 8 hour
  MBC test growth score: +
[1]; 60% preservative, 24 hour
  MBC test growth score: +
[1]; 60% preservative, 48 hour
  MBC test growth score: +
[1]; 60% preservative, 72 hour
  MBC test growth score: +
[1]; 70% preservative, 8 hour
  MBC test growth score: +
[1]; 70% preservative, 24 hour
  MBC test growth score: +
[1]; 70% preservative, 48 hour
  MBC test growth score: +
[1]; 70% preservative, 72 hour
  MBC test growth score: +
[1]; 80% preservative, 8 hour
  MBC test growth score: +
[1]; 80% preservative, 24 hour
  MBC test growth score: +
[1]; 80% preservative, 48 hour
  MBC test growth score: +
[1]; 80% preservative, 72 hour
  MBC test growth score: +
[1]; 90% preservative, 8 hour
  MBC test growth score: +
[1]; 90% preservative, 24 hour
  MBC test growth score: +
[1]; 90% preservative, 48 hour
  MBC test growth score: +
[1]; 90% preservative, 72 hour
  MBC test growth score: +
[1]; 100% preservative, 8 hour
  MBC test growth score: +
[1]; 100% preservative, 24 hour
  MBC test growth score: +
[1]; 100% preservative, 48 hour
  MBC test growth score: +
[1]; 100% preservative, 72 hour
  MBC test growth score: +
[1]; [3]
  total kill at % preservative (MBC): No kill @ 100%
[2]; 10% preservative, 8 hour
  MBC test growth score: +
[2]; 10% preservative, 24 hour
  MBC test growth score: +
[2]; 10% preservative, 48 hour
  MBC test growth score: +
[2]; 10% preservative, 72 hour
  MBC test growth score: +
[2]; 20% preservative, 8 hour
  MBC test growth score: +
[2]; 20% preservative, 24 hour
  MBC test growth score: +
[2]; 20% preservative, 48 hour
  MBC test growth score: +
[2]; 20% preservative, 72 hour
  MBC test growth score: +
[2]; 30% preservative, 8 hour
  MBC test growth score: +
[2]; 30% preservative, 24 hour
  MBC test growth score: +
[2]; 30% preservative, 48 hour
  MBC test growth score: +
[2]; 30% preservative, 72 hour
  MBC test growth score: +
[2]; 40% preservative, 8 hour
  MBC test growth score: +
[2]; 40% preservative, 24 hour
  MBC test growth score: +
[2]; 40% preservative, 48 hour
  MBC test growth score: +
[2]; 40% preservative, 72 hour
  MBC test growth score: +
[2]; 50% preservative, 8 hour
  MBC test growth score: +
[2]; 50% preservative, 24 hour
  MBC test growth score: +
[2]; 50% preservative, 48 hour
  MBC test growth score: +
[2]; 50% preservative, 72 hour
  MBC test growth score: +
[2]; 60% preservative, 8 hour
  MBC test growth score: +
[2]; 60% preservative, 24 hour
  MBC test growth score: +
[2]; 60% preservative, 48 hour
  MBC test growth score: +
[2]; 60% preservative, 72 hour
  MBC test growth score: +
[2]; 70% preservative, 8 hour
  MBC test growth score: +
[2]; 70% preservative, 24 hour
  MBC test growth score: +
[2]; 70% preservative, 48 hour
  MBC test growth score: +
[2]; 70% preservative, 72 hour
  MBC test growth score: +
[2]; 80% preservative, 8 hour
  MBC test growth score: +
[2]; 80% preservative, 24 hour
  MBC test growth score: +
[2]; 80% preservative, 48 hour
  MBC test growth score: +
[2]; 80% preservative, 72 hour
  MBC test growth score: +
[2]; 90% preservative, 8 hour
  MBC test growth score: +
[2]; 90% preservative, 24 hour
  MBC test growth score: +
[2]; 90% preservative, 48 hour
  MBC test growth score: +
[2]; 90% preservative, 72 hour
  MBC test growth score: +
[2]; 100% preservative, 8 hour
  MBC test growth score: +
[2]; 100% preservative, 24 hour
  MBC test growth score: +
[2]; 100% preservative, 48 hour
  MBC test growth score: +
[2]; 100% preservative, 72 hour
  MBC test growth score: +
[2]; [3]
  total kill at % preservative (MBC): No kill @ 100%

Reference: patent US20140094424A1, “MICROBICIDAL COMPOSITIONS AND METHODS OF PRODUCTION USE THEREOF” (priority 2011, published 2014)
